This is an account of results in PubChem BioAssay AID1671243.

The assay has as its target Casein kinase I isoform alpha (Homo sapiens) (UniProt P48729). The assay is described as follows: CSNK1A1 kinase inhibitors, dose response, biochemical, Z'-LYTE, FRET, direct format (AID 1671243). The note with it: Z'-LYTE FRET kinase activity assay.

Casein kinase I isoform alpha (Homo sapiens), sequence (P48729 whole entry, looked up, canonical isoform): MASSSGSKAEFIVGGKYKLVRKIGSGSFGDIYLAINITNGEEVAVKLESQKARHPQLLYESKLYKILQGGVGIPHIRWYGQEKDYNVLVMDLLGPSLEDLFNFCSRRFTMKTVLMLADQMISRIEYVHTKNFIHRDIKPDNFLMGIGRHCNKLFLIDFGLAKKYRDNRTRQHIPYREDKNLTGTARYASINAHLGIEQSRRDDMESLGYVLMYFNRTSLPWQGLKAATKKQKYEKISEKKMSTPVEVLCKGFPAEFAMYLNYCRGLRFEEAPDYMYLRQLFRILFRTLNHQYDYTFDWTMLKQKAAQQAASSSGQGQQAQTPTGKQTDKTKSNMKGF

For the compound `Brc1c(Br)c(Br)c2n[nH]nc2c1Br`, the IC50 was 17.6 µM.
